The source of these data is patent US8106055B2, “Substituted amide compounds” (Gruenenthal GmbH, priority 2007, dated 2012).

Experiment [1] addresses T1, human μ opiate receptor (Homo sapiens, UniProt P35372).
T1 construct: purchased PerkinElmer Life Sciences, Zaventem, Belgium RB-HOM; host or cells: CHO-K1 cells (membrane preparation)
Kind of experiment: Affinity for the human μ opiate receptor ([3H]-naloxone displacement, CHO-K1 receptor membrane preparation, SPA). It is filed as binding. The conditions noted are these: test concentration of 1 μM. The method, then:
Binding data of the compounds on the μ opioid receptor and data on the inhibition of reuptake of serotonin (5-HT) are given in Table 1. The data for the μ receptor were measured at a test concentration of 1 μM, and those for the serotonin reuptake at 10 μM. The values are stated in % inhibition.
Investigation of the Activity of the Compounds of the Invention Method for Determining the Affinity for the Human μ Opiate Receptor
The receptor affinity for the human p opiate receptor is determined in a homogeneous set-up in microtitre plates. For this, dilution series of the substances to be tested are incubated with a receptor membrane preparation (15-40 μg of protein/250 μl of incubation batch) of CHO-K1 cells which express the human p opiate receptor (RB-HOM receptor membrane preparation from PerkinElmer Life Sciences, Zaventem, Belgium) in the presence of 1 nmol/l of the radioactive ligand [^3H]-naloxone (NET719, PerkinElmer Life Sciences, Zaventem, Belgium) and 1 mg of WGA-SPA-Beads (wheat germ agglutinin SPA beads from Amersham/Pharmacia, Freiburg, Germany) in a total volume of 250 μl for 90 minutes at room temperature. 50 mmol/l of Tris-HCl supplemented with 0.06% of bovine serum albumin is used as the incubation buffer. 100 μmol/l of naloxone are additionally added for determination of the non-specific binding. After the end of the ninety-minute incubation time, the microtitre plates are centrifuged for 20 minutes at 1,000 g and the radioactivity is measured in a β-counter (Microbeta-Trilux, PerkinElmer Wallac, Freiburg, Germany). The percentage displacement of the radioactive ligand from its binding to the human p opiate receptor is determined at a concentration of the test substances of 1 μmol/l and stated as the percentage inhibition of the specific binding. Starting from the percentage displacement by various concentrations of the test substances, IC50 inhibitory concentrations which cause a 50 percent displacement of the radioactive ligand are calculated. By conversion by means of the Cheng-Prusoff relationship, Ki values for the test substances are obtained.

Experiment [2] concerns the target T2, human bradykinin 1 receptor (B1R) (Homo sapiens, UniProt P46663).
T2 construct: expressed in transfected cells; host or cells: CHO K1 cells
T2 sequence (P46663 1-353): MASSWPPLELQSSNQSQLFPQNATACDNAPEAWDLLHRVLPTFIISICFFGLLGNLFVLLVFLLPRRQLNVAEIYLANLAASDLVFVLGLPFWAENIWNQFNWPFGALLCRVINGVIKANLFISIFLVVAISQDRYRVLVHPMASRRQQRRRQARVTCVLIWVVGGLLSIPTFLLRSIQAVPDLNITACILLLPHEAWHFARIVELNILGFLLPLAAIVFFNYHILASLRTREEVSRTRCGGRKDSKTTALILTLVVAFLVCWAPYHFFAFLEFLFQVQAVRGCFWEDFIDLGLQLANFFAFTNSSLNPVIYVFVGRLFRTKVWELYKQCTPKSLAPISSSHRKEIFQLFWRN
Kind of experiment: Functional investigation on the human bradykinin 1 receptor (B1R), Ca2+ FLIPR assay in CHO K1 hB1R cells. It is filed as cell-based. The following applies: test substance 10 μM; for inhibition at 10 µM: CHO-K1, B1R antagonism human, read-out: B1R Ant. h [10 μM] % Inhibition; for B1R Ant. h [10 μM] % Inhibition: B1R antagonism human. An excerpt: Functional Investigation on the Human Bradykinin 1 Receptor (B1R)
The agonistic or antagonistic action of substances can be determined on the bradykinin 1 receptor (B1R) of the human species and rats with the following assay. In accordance with this assay, the Ca^2+ inflow through the channel is quantified with the aid of a Ca^2=-sensitive dyestuff (type Fluo-4, Molecular Probes Europe BV, Leiden, Holland) in a fluorescent imaging plate reader (FLIPR, Molecular Devices, Sunnyvale, USA).
Chinese hamster ovary cells (CHO K1 cells) transfected stably with the human B1R gene (hB1R cells) or the B1R gene of the rat (rB1R cells) are used. For functional studies, these cells are plated out on black 96-well plates with a clear base (BD Biosciences, Heidelberg, Germany or Greiner, Frickenhausen, Germany) in a density of 20,000-35,000 cells/well. The cells are left overnight at 37° C. and 5% CO2 in culture medium (hB1R cells: Nutrient Mixture Ham's F12, Gibco Invitrogen GmbH, Karlsruhe, Germany or DMEM, Sigma-Aldrich, Taufkirchen, Germany; rB1R cells: D-MEM/F12, Gibco Invitrogen GmbH, Karlsruhe, Germany) with 10 vol. % of FBS (foetal bovine serum, Gibco Invitrogen GmbH, Karlsruhe, Germany or PAN Biotech GmbH, Aidenbach, Germany).
On the following day, the cells are loaded for 60 min at 37° C. with 2.13 μM Fluo-4 (Molecular Probes Europe BV, Leiden, The Netherlands) in HBSS buffer (Hank's buffered saline solution, Gibco Invitrogen GmbH, Karlsruhe, Germany) with 2.5 mM probenecid (Sigma-Aldrich, Taufkirchen, Germany) and 10 mM HEPES (Sigma-Aldrich, Taufkirchen, Germany). The plates are then washed 2× with HBSS buffer, and HBSS buffer which additionally contains 0.1% of BSA (bovine serum albumin; Sigma-Aldrich, Taufkirchen, Germany), 5.6 mM glucose and 0.05% of gelatine (Merck KGaA, Darmstadt, Germany) is added. After a further incubation of 20 minutes at room temperature, the plates are inserted into the FLIPR for the Ca^2+ measurement.
Alternatively, the plates are washed with buffer A (15 mM HEPES, 80 mM NaCl, 5 mM KCl, 1.2 mM CaCl2, 0.7 mM MgSO4, 2 g/l glucose, 2.5 mM probenecid), buffer A is added and the plates are loaded with 2.5 μM Fluo-4 and 0.025% of Pluronic F127 (Sigma-Aldrich, Taufkirchen, Germany). Thereafter, the cells are washed 2× with buffer A and incubated for 30 minutes with buffer A, which additionally contains 0.05% of BSA and 0.05% of gelatine, at room temperature and thereafter inserted into the FLIPR for the Ca^2+ measurement.
The Ca^2+-dependent fluorescence is measured before and after addition of substances (λex=488 nm, λem=540 nm). Quantification is by measurement of the highest fluorescence intensity (FC, fluorescence counts) over time.
The FLIPR protocol consists of 2 additions of substance. Test substances (10 μM) are first pipetted on to the cells and the Ca^2+ inflow is compared with the control (hB1R: Lys-Des-Arg^9-bradykinin >=50 nM; rB1R: Des-Arg^9-bradykinin 10 μM). This gives the information in % activation based on the Ca^2+ signal after addition of Lys-Des-Arg^9-bradykinin (>=50 nM) or Des-Arg^9-bradykinin (10 μM).
After incubation for 10-20 minutes, Lys-Des-Arg^9-bradykinin (hB1R) or Des-Arg^9-bradykinin (rB1R) is applied in the concentration of the EC80 and the inflow of Ca^2+ is likewise determined.
Antagonists lead to a suppression of the Ca^2+ inflow. % inhibition compared with the maximum achievable inhibition is calculated.
To determine the IC50 value, the substances are added in various concentrations. Duplicate or triplicate determinations (n=2 or n=3) are carried out, and these are repeated in at least one further independent experiment (N>=2).
Preferably, the compounds have a B1R antagonistic action on the human receptor and/or on the rat receptor. The following data are given by way of example in the following table: (In this, “B1R Ant. h” represents “B1R antagonism human” and “B1R Ant. r” represents “B1R antagonism rat”)

Usually inhibition stands for the change of the read-out against control, counted positive when it falls.

Where two headings read alike, the source gives them in different places.

T1 sequence (P35372 whole entry): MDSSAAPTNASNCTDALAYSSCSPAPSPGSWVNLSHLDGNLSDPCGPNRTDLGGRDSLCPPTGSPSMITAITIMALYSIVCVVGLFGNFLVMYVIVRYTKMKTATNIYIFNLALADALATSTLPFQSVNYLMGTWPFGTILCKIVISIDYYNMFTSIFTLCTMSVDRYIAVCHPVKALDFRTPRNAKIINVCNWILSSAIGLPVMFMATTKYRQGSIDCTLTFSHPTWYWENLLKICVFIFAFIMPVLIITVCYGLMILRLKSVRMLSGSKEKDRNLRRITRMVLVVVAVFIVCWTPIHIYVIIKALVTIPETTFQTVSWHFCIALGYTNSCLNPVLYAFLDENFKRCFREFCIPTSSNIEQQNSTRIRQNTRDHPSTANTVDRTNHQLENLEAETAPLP

On to `Cc1ccc(S(=O)(=O)N2CCC(OCC(=O)NC3CCC(C(c4ccccc4)N(C)C)CC3)C2)cc1` (stereo not drawn) [Example 123, N-(4-((dimethylamino)(phenyl)methyl)cyclohexyl)-2-(1-tosylpyrrolidin-3-yloxy)acetamide], for which, in experiment [1] (read-out: μ (binding on the μ opioid receptor, % inhibition)), the inhibition at 1 µM was found to be 27%. Besides, the inhibition at 10 µM in experiment [2] (Ca2+ FLIPR, CHO K1 hB1R cells) was -6%.

With `CC(Oc1ccccc1)C(=O)NC1CCC(C(c2ccc(F)cc2)N(C)C)CC1` (stereo not drawn) [Example 516], in experiment [1], the “μ (binding on the μ opioid receptor, % inhibition)” value came out at 40%.

Regarding `CN(C)C(c1ccccc1)C1CCC(NC(=O)COCCN(C)S(=O)(=O)c2ccc(F)cc2)CC1` (stereo not drawn) [Example 585], the “μ (binding on the μ opioid receptor, % inhibition)” value in experiment [1] was determined as 41%. Moreover, the “B1R Ant. h [10 μM] % Inhibition” value in experiment [2] (Ca2+ FLIPR, CHO K1 hB1R cells) is −10%.

With `CN(C)C(c1ccccc1)C1CCC(NC(=O)COCCN(C)S(=O)(=O)c2ccccc2)CC1` (stereo not drawn) [Example 588], in experiment [1], the “μ (binding on the μ opioid receptor, % inhibition)” value turned out to be 29%. Moreover, the “B1R Ant. h [10 μM] % Inhibition” value in experiment [2] (Ca2+ FLIPR, CHO K1 hB1R cells) came out at 6%.

`CN(C)C(c1ccccc1)C1CCC(NC(=O)COCCN(C)S(=O)(=O)c2ccc(Cl)cc2)CC1` (stereo not drawn) [Example 589]: the “μ (binding on the μ opioid receptor, % inhibition)” value in experiment [1] turned out to be 25%. Besides, in experiment [2] (Ca2+ FLIPR, CHO K1 hB1R cells), the “B1R Ant. h [10 μM] % Inhibition” value came out at 28%. Taken in the same sequence, the figures for `COc1ccc(S(=O)(=O)N(C)CCOCC(=O)NC2CCC(C(c3ccccc3)N(C)C)CC2)cc1` (stereo not drawn) [Example 590] were 75% and −1%. Taken in the same sequence, the figures for `CN(C)C(c1ccccc1)C1CCC(NC(=O)COC2CCN(S(=O)(=O)c3ccc(F)cc3)C2)CC1` (stereo not drawn) [Example 591] were 93% and 0%. Taken in the same sequence, the figures for `COc1ccc(S(=O)(=O)N(C)CCOCC(=O)NC2CCC(C(c3ccccc3)N(C)C)CC2)cc1OC` (stereo not drawn) [Example 592] were 83% and 1%.

As to `CN(C)C(c1ccccc1)C1CCC(NC(=O)COCCN(C)S(=O)(=O)c2cccc(C(F)(F)F)c2)CC1` (stereo not drawn) [Example 593], the “μ (binding on the μ opioid receptor, % inhibition)” value in experiment [1] is 91%. Further, in experiment [2] (Ca2+ FLIPR, CHO K1 hB1R cells), the “B1R Ant. h [10 μM] % Inhibition” value is on record as 56%. For `CN(C)C(c1ccccc1)C1CCC(NC(=O)COCCN(C)S(=O)(=O)c2ccc(OC(F)(F)F)cc2)CC1` (stereo not drawn) [Example 594] the same measures were 94% and 20%. `CN(C)C(c1ccccc1)C1CCC(NC(=O)COC2CCN(S(=O)(=O)c3ccccc3)C2)CC1` (stereo not drawn) [Example 595]: the “μ (binding on the μ opioid receptor, % inhibition)” value in experiment [1] is 51%. Besides, in experiment [2] (Ca2+ FLIPR, CHO K1 hB1R cells), the “B1R Ant. h [10 μM] % Inhibition” value was determined as 15%.

Consider `CN(C)C(c1ccccc1)C1CCC(NC(=O)COC2CCN(S(=O)(=O)c3ccc(Cl)cc3Cl)C2)CC1` (stereo not drawn) [Example 596], for which the “μ (binding on the μ opioid receptor, % inhibition)” value in experiment [1] came out at 84%. In addition, the “B1R Ant. h [10 μM] % Inhibition” value in experiment [2] (Ca2+ FLIPR, CHO K1 hB1R cells) worked out at 32%. For the compound `COc1ccc(-c2noc(C(=O)NCC(=O)NC3CCC(C(CCc4ccccc4)N(C)C)CC3)n2)cc1OC` (stereo not drawn) [Example 794, 3-(3,4-dimethoxy-phenyl)-[1,2,4]oxadiazole-5-carboxylic acid {[4-(1-dimethylamino-3-phenyl-propyl)-cyclohexylcarbamoyl]-methyl}-amide], the inhibition at 10 µM in experiment [2] (Ca2+ FLIPR, CHO K1 hB1R cells) turned out to be 1%. Take `CN(C)C(CCc1ccccc1)C1CCC(NC(=O)CNC(=O)c2nc(-c3ccc(Cl)cc3Cl)no2)CC1` (stereo not drawn) [Example 795, 3-(2,4-dichloro-phenyl)-[1,2,4]oxadiazole-5-carboxylic acid {[4-(1-dimethylamino-3-phenyl-propyl)-cyclohexylcarbamoyl]-methyl}-amide]: the inhibition at 10 µM in experiment [2] (Ca2+ FLIPR, CHO K1 hB1R cells) was determined as 103%. With `Cc1ccc(F)cc1-c1noc(C(=O)NCC(=O)NC2CCC(C(CCc3ccccc3)N(C)C)CC2)n1` (stereo not drawn) [Example 796, 3-(5-fluoro-2-methyl-phenyl)-[1,2,4]oxadiazole-5-carboxylic acid {[4-(1-dimethylamino-3-phenyl-propyl)-cyclohexylcarbamoyl]-methyl}-amide], in experiment [2] (Ca2+ FLIPR, CHO K1 hB1R cells), the inhibition at 10 µM was 94%. For `CN(C)C(CCc1ccccc1)C1CCC(NC(=O)CCNC(=O)c2nc(-c3cccs3)no2)CC1` (stereo not drawn) [Example 797, 3-thiophen-2-yl-[1,2,4]oxadiazole-5-carboxylic acid {2-[4-(1-dimethylamino-3-phenyl-propyl)-cyclohexylcarbamoyl]-ethyl}-amide], in experiment [2] (% inhibition compared with the maximum achievable inhibition), the inhibition at 10 µM is 0%.
